Reference: patent publication US20250073680A1, “METHOD OF REGENERATING BIS(IMINOGUANIDINE) CARBON DIOXIDE SORBENTS FROM CARBONATE OR BICARBONATE SALT THEREOF” (UT-Battelle, LLC, priority 2023, published 2025)
“Also recorded” adds a separate entry of the source.

Experiments:
[1] = Stability after steam stripping by NMR and XRD; assay type: physicochemical; details: 1H-NMR and XRD versus synthesized / conventionally regenerated sample
Method: Infrared sensors for CO2 concentration measurements in the inlet and outlet gas streams were used. For gas sample measurements, the exhaust gas passed through a water trap and hydrophobic filter (CM-0118) prior to reaching the sensor to avoid excess water. A total inorganic carbon analyzer containing an acidification module and a CO2 coulometer module was used to determine inorganic carbon content in solid samples. Air at 100 mL/min was used as a carrier gas, and calculations were based on sample weight. A 1 M Na2CO3 solution was used as a standard. Solid samples (40-60 mg) were weighed out into small Teflon cups, and the entire cup was transferred into a 15-mL sample flask. A volume of 5 mL of 2 M HCl acid was dispensed to acidify each sample. Solid samples were analyzed in duplicates. X-ray diffraction (XRD) measurements were conducted using an X-ray diffraction system equipped with a solid-state detector. For the XRD measurements, X-rays were generated at 45 kV/40 mA, and the X-ray beam wavelength was λ=1.5406 A (Cu Kα radiation). Nuclear magnetic resonance (NMR) measurements were performed to quantify solvent degradation after regeneration. The 1D spectra were recorded on a 400 MHz NMR spectrometer equipped with a 5 mm BBI or BBO probe. A residual solvent peak was used as an internal reference (DMSO-d6: 2.50 ppm). […]

[2] = total regeneration energy; cited from earlier work
[3] = Aqueous solubility of regenerated sorbent; assay type: physicochemical; details: free base

| Structure (SMILES) | chemical stability after direct steam regeneration [1] | regeneration energy [2] | aqueous solubility [3] |
| --- | --- | --- | --- |
| N=C(N)NN=CC=NNC(=N)N [GBIG, glyoxal-bis(iminoguanidine)] | no chemical degradation occurred |  |  |
| N=C(N)N/N=C/C=N/NC(=N)N [GBIG-C, GBIG carbonate] |  | 3.4 kJ/g-CO2 |  |
| CC(/C=N/NC(=N)N)=N\NC(=N)N [MGBIG, methylglyoxal-bis(iminoguanidine)] | no chemical degradation occurred |  | completely dissolved in water; also recorded: high aqueous solubility |
| CC(/C=N/NC(=N)N)=N\NC(=N)N [MGBIG-C, methylglyoxal-bis(iminoguanidine) (MGBIG) carbonate] |  | 7.0-10.2 kJ/g-CO2 |  |
